Measurements taken from ChEMBL document CHEMBL1201862, “PubChem BioAssay data set” (2004).
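Growth conditions: 96-well plates. Treatment: test compound, 48 hours, 5 concentrations. Analysis: linear interpolation between bracketing concentrations; unreached endpoints set to highest concentration. The concentration for 50% growth inhibition is given as GI50.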 The source made the active and inactive calls. Cut-off read from the data, not from the text of the source: active = GI50 up to about 1.1 µM and inactive = higher.

Legend:
Test in all cases: NCI anticancer screen, dose series, 48 h
MDA-MB-435 = tested on: MDA-MB-435
NCI-H226 = tested on: NCI-H226
SNB-75 = tested on: SNB-75
Malme-3M = tested on: Malme-3M
OVCAR-3 = tested on: OVCAR-3
OVCAR-5 = tested on: OVCAR-5
HOP-62 = tested on: HOP-62
SK-MEL-5 = tested on: SK-MEL-5
RXF 393 = tested on: RXF 393
CCRF-CEM = tested on: CCRF-CEM
NCI-H460 = tested on: NCI-H460
BT-549 = tested on: BT-549
UACC-62 = tested on: UACC-62
NCI-H23 = tested on: NCI-H23
SW-620 = tested on: SW-620
U-251 = tested on: U-251
CAKI-1 = tested on: CAKI-1
ACHN = tested on: ACHN
KM12 = tested on: KM12
SR = tested on: SR

Measured: GI50

C(=N\NC1=NCCCN1)/c1ccc(-c2cn3cc(/C=N/NC4=NCCCN4)ccc3n2)cc1
inactive: MDA-MB-435 > 100 µM | NCI-H226 45.3 µM | SNB-75 > 81.5 µM | Malme-3M 19 µM | OVCAR-3 > 100 µM | OVCAR-5 > 100 µM | HOP-62 > 79.8 µM | SK-MEL-5 > 100 µM | RXF 393 61.1 µM | CCRF-CEM > 41.9 µM | NCI-H460 7.23 µM | BT-549 > 100 µM | UACC-62 > 100 µM | NCI-H23 > 100 µM | SW-620 > 100 µM | U-251 > 88.9 µM | CAKI-1 37 µM | ACHN 42 µM | KM12 > 58.1 µM

C[C@]12CC[C@H]3[C@@H](CC=C4C[C@@H](O)CC[C@@]43C)[C@@H]1CC[C@@H]2N(CCO)CCO
inactive: MDA-MB-435 85.9 µM | NCI-H226 > 100 µM | SNB-75 72.8 µM | Malme-3M 31 µM | OVCAR-3 34.8 µM | OVCAR-5 55.1 µM | HOP-62 51.3 µM | SK-MEL-5 63.5 µM | RXF 393 36.1 µM | CCRF-CEM 46.2 µM | NCI-H460 33.2 µM | BT-549 > 100 µM | UACC-62 35.3 µM | NCI-H23 > 100 µM | SW-620 41.3 µM | U-251 59.8 µM | CAKI-1 45.3 µM | ACHN 30.7 µM | KM12 54.5 µM

Oc1ccc(NCc2cc(O)ccc2O)cc1
inactive: MDA-MB-435 16.4 µM | NCI-H226 18.9 µM | SNB-75 17.2 µM | Malme-3M 19.1 µM | OVCAR-3 17.3 µM | OVCAR-5 18.3 µM | HOP-62 18.7 µM | SK-MEL-5 16.9 µM | RXF 393 15.3 µM | NCI-H460 18.5 µM | BT-549 12.7 µM | UACC-62 15.4 µM | NCI-H23 18.1 µM | SW-620 11.5 µM | U-251 15.7 µM | CAKI-1 16 µM | ACHN 16.1 µM | KM12 21.7 µM

Cc1cc2nc3c(C#N)c(-c4ccccc4)cc(Nc4ccc(F)cc4)n3c2cc1C
inactive: MDA-MB-435 > 100 µM | NCI-H226 27.2 µM | SNB-75 15.9 µM | Malme-3M 21.5 µM | OVCAR-3 12.2 µM | OVCAR-5 15.6 µM | HOP-62 14.4 µM | SK-MEL-5 16 µM | RXF 393 14.4 µM | BT-549 22.6 µM | NCI-H23 13.4 µM | SW-620 55.5 µM | U-251 4.33 µM | CAKI-1 29.9 µM | ACHN 16.4 µM | KM12 86.7 µM

NC(=S)N/N=C1\CCc2ccccc2C1
inactive: MDA-MB-435 > 100 µM | NCI-H226 32.2 µM | Malme-3M > 100 µM | OVCAR-3 > 100 µM | OVCAR-5 > 100 µM | HOP-62 > 100 µM | RXF 393 80.4 µM | CCRF-CEM 70.8 µM | NCI-H460 > 100 µM | BT-549 > 100 µM | UACC-62 55 µM | NCI-H23 > 100 µM | SW-620 > 100 µM | SR > 100 µM | U-251 > 100 µM | ACHN > 100 µM | KM12 > 100 µM

C=CCCCCOC1C=CC(OC(C)=O)C(COC(C)=O)O1 (centres undefined)
inactive: MDA-MB-435 > 100 µM | NCI-H226 > 100 µM | Malme-3M > 100 µM | OVCAR-3 > 100 µM | OVCAR-5 > 100 µM | HOP-62 > 100 µM | SK-MEL-5 > 100 µM | RXF 393 > 100 µM | CCRF-CEM > 100 µM | NCI-H460 > 100 µM | BT-549 > 100 µM | UACC-62 > 100 µM | NCI-H23 > 100 µM | SW-620 > 100 µM | U-251 > 100 µM | CAKI-1 > 100 µM | ACHN > 100 µM | KM12 > 100 µM

CN(C)c1c(C2CC(O)C(CO)O2)c(=O)c1=O (centres undefined)
inactive: MDA-MB-435 > 100 µM | NCI-H226 77.1 µM | SNB-75 > 100 µM | OVCAR-3 > 100 µM | OVCAR-5 > 100 µM | HOP-62 > 100 µM | NCI-H460 > 100 µM | BT-549 > 100 µM | UACC-62 > 100 µM | SW-620 > 100 µM | SR > 100 µM | U-251 > 100 µM | ACHN > 100 µM | KM12 > 100 µM

C=C(C)[C@H]1CC(=O)/C(C)=C\CC/C(C)=C/CC[C@@]2(C)O[C@@H]2C1
inactive: MDA-MB-435 17 µM | SNB-75 41.4 µM | Malme-3M 36.8 µM | OVCAR-3 17 µM | OVCAR-5 35.4 µM | HOP-62 40.2 µM | SK-MEL-5 23.7 µM | CCRF-CEM 35.1 µM | NCI-H460 16.8 µM | BT-549 47.6 µM | UACC-62 8.47 µM | NCI-H23 22.3 µM | SW-620 46.3 µM | SR 25.4 µM | U-251 22.5 µM | CAKI-1 1.99 µM | ACHN 29.4 µM | KM12 20.8 µM

O=C1/C(=C\c2cccc(Oc3ccccc3)c2)S(=O)(=O)C(c2ccccc2)N1Cc1ccccc1 (centres undefined)
inactive: MDA-MB-435 32.3 µM | Malme-3M 18.4 µM | OVCAR-3 13.8 µM | OVCAR-5 57 µM | HOP-62 26.5 µM | SK-MEL-5 18.5 µM | RXF 393 27 µM | CCRF-CEM 24.5 µM | NCI-H460 15.1 µM | BT-549 29 µM | UACC-62 19.1 µM | NCI-H23 28 µM | SW-620 40.4 µM | SR 14.9 µM | U-251 33.7 µM | CAKI-1 26.6 µM | ACHN 23 µM | KM12 23.1 µM

O=C(NN=C1CCCCC1)Nc1ccccc1Cl
inactive: MDA-MB-435 16.6 µM | NCI-H226 39.9 µM | SNB-75 2.82 µM | Malme-3M 40.3 µM | OVCAR-3 16.4 µM | OVCAR-5 54.2 µM | SK-MEL-5 27.3 µM | CCRF-CEM 42 µM | NCI-H460 42.5 µM | BT-549 64.4 µM | UACC-62 36.8 µM | NCI-H23 57.8 µM | SW-620 43.8 µM | SR 22.5 µM | U-251 84.5 µM | CAKI-1 92.7 µM | ACHN > 100 µM | KM12 38.3 µM

CN(NC(=O)CCCl)C1=NCCCCN1
inactive: MDA-MB-435 > 100 µM | NCI-H226 > 100 µM | SNB-75 > 100 µM | Malme-3M > 100 µM | OVCAR-3 > 100 µM | OVCAR-5 > 100 µM | HOP-62 > 100 µM | SK-MEL-5 > 100 µM | RXF 393 > 100 µM | CCRF-CEM > 100 µM | NCI-H460 > 100 µM | BT-549 > 100 µM | UACC-62 > 100 µM | NCI-H23 > 100 µM | SW-620 > 100 µM | SR > 100 µM | U-251 > 100 µM | ACHN > 100 µM | KM12 > 100 µM
